ChEMBL document CHEMBL5143701, “Evaluation of potential anticonvulsant fluorinated N-benzamide enaminones as T-type Ca2+ channel blockers” (Bioorg Med Chem, 2022)
Activity calls are given as the source filed them. The calls are words filed in the database; no cut-off is given here.

Assays:
Format in all cases: cell-based
[1] = biological target: Voltage-dependent T-type calcium channel subunit alpha-1H (Homo sapiens) (UniProt O95180); experiment: Inhibition of Cav3.2 (unknown origin) stably transfected in HEK293 cells assessed as volatage induced T-type Ca2+ current at 1 to 50 uM incubated for 5 mins by whole cell voltage-clamp assay; conditions: dose 1-50 µM
[2] = biological target: Voltage-dependent T-type calcium channel subunit alpha-1I (Homo sapiens) (UniProt Q9P0X4); experiment: Inhibition of Cav3.3 (unknown origin) stably transfected in HEK293 cells assessed as reduction inactivation time constant transient current at 10 uM incubated for 5 mins by whole cell voltage-clamp assay
[3] = biological target: Voltage-dependent T-type calcium channel subunit alpha-1I (Homo sapiens) (UniProt Q9P0X4); experiment: Inhibition of Cav3.3 (unknown origin) stably transfected in HEK293 cells assessed as V1/2 at 10 uM incubated for 5 mins by whole cell voltage-clamp assay (reference value: -65.6 +/- 3.1mV)
[4] = biological target: Voltage-dependent T-type calcium channel subunit alpha-1H (Homo sapiens) (UniProt O95180); experiment: Inhibition of Cav3.2 (unknown origin) stably transfected in HEK293 cells assessed as V1/2 at 10 uM incubated for 5 mins by whole cell voltage-clamp assay (reference value: -64.8 +/- 1.3mV)
ND7/23 [5] = experiment: Inhibition of Voltage-dependent T-type calcium channel in mouse ND7/23 cells assessed as reduction in volatage induced T-type Ca2+ current density at 50 uM incubated for 5 mins followed by compound washout by whole cell voltage-clamp assay
[6] = biological target: Voltage-dependent T-type calcium channel subunit alpha-1H (Homo sapiens) (UniProt O95180); experiment: Inhibition of Cav3.2 (unknown origin) stably transfected in HEK293 cells assessed as increase in recovery time at 10 uM incubated for 5 mins by whole cell voltage-clamp assay (reference value: 514.5 +/- 37.8ms)
[7] = Inhibition of Voltage-dependent T-type calcium channel in mouse ND7/23 cells assessed as reduction in volatage induced T-type Ca2+ current density incubated for 5 mins by whole cell voltage-clamp assay; conditions: ND7/23, 5 min
[8] = biological target: Voltage-dependent T-type calcium channel subunit alpha-1H (Homo sapiens) (UniProt O95180); experiment: Inhibition of Cav3.2 (unknown origin) stably transfected in HEK293 cells assessed as reduction in volatage induced peak current at 10 uM incubated for 5 mins by whole cell voltage-clamp assay
[9] = biological target: Voltage-dependent T-type calcium channel subunit alpha-1H (Homo sapiens) (UniProt O95180); experiment: Inhibition of Cav3.2 (unknown origin) stably transfected in HEK293 cells assessed as slope factor at 10 uM incubated for 5 mins by whole cell voltage-clamp assay (reference value: 5.2 +/- 0.2No_unit)
[10] = biological target: Voltage-dependent T-type calcium channel subunit alpha-1H (Homo sapiens) (UniProt O95180); experiment: Inhibition of Cav3.2 (unknown origin) stably transfected in HEK293 cells assessed as activation time constant transient current at 10 uM incubated for 5 mins by whole cell voltage-clamp assay
[11] = biological target: Voltage-dependent T-type calcium channel subunit alpha-1I (Homo sapiens) (UniProt Q9P0X4); experiment: Inhibition of Cav3.3 (unknown origin) stably transfected in HEK293 cells assessed as activation time constant transient current at 10 uM incubated for 5 mins by whole cell voltage-clamp assay
HEK293 = experiment: Inhibition of Cav3.2 (unknown origin) stably transfected in HEK293 cells assessed as reduction in volatage induced Ca2+ current density at 10 uM incubated for 5 mins by whole cell voltage-clamp assay; conditions: Homo sapiens
[12] = biological target: Voltage-dependent T-type calcium channel subunit alpha-1I (Homo sapiens) (UniProt Q9P0X4); experiment: Inhibition of Cav3.3 (unknown origin) stably transfected in HEK293 cells assessed as slope factor at 10 uM incubated for 5 mins by whole cell voltage-clamp assay (reference value: 5.3 +/- 0.6mV)
ND7/23 [13] = experiment: Inhibition of Voltage-dependent T-type calcium channel in mouse ND7/23 cells assessed as reduction in volatage induced T-type Ca2+ current density at 50 uM incubated for 5 mins by whole cell voltage-clamp assay

Voltage-dependent T-type calcium channel subunit alpha-1I (Homo sapiens), sequence (Q9P0X4 whole entry): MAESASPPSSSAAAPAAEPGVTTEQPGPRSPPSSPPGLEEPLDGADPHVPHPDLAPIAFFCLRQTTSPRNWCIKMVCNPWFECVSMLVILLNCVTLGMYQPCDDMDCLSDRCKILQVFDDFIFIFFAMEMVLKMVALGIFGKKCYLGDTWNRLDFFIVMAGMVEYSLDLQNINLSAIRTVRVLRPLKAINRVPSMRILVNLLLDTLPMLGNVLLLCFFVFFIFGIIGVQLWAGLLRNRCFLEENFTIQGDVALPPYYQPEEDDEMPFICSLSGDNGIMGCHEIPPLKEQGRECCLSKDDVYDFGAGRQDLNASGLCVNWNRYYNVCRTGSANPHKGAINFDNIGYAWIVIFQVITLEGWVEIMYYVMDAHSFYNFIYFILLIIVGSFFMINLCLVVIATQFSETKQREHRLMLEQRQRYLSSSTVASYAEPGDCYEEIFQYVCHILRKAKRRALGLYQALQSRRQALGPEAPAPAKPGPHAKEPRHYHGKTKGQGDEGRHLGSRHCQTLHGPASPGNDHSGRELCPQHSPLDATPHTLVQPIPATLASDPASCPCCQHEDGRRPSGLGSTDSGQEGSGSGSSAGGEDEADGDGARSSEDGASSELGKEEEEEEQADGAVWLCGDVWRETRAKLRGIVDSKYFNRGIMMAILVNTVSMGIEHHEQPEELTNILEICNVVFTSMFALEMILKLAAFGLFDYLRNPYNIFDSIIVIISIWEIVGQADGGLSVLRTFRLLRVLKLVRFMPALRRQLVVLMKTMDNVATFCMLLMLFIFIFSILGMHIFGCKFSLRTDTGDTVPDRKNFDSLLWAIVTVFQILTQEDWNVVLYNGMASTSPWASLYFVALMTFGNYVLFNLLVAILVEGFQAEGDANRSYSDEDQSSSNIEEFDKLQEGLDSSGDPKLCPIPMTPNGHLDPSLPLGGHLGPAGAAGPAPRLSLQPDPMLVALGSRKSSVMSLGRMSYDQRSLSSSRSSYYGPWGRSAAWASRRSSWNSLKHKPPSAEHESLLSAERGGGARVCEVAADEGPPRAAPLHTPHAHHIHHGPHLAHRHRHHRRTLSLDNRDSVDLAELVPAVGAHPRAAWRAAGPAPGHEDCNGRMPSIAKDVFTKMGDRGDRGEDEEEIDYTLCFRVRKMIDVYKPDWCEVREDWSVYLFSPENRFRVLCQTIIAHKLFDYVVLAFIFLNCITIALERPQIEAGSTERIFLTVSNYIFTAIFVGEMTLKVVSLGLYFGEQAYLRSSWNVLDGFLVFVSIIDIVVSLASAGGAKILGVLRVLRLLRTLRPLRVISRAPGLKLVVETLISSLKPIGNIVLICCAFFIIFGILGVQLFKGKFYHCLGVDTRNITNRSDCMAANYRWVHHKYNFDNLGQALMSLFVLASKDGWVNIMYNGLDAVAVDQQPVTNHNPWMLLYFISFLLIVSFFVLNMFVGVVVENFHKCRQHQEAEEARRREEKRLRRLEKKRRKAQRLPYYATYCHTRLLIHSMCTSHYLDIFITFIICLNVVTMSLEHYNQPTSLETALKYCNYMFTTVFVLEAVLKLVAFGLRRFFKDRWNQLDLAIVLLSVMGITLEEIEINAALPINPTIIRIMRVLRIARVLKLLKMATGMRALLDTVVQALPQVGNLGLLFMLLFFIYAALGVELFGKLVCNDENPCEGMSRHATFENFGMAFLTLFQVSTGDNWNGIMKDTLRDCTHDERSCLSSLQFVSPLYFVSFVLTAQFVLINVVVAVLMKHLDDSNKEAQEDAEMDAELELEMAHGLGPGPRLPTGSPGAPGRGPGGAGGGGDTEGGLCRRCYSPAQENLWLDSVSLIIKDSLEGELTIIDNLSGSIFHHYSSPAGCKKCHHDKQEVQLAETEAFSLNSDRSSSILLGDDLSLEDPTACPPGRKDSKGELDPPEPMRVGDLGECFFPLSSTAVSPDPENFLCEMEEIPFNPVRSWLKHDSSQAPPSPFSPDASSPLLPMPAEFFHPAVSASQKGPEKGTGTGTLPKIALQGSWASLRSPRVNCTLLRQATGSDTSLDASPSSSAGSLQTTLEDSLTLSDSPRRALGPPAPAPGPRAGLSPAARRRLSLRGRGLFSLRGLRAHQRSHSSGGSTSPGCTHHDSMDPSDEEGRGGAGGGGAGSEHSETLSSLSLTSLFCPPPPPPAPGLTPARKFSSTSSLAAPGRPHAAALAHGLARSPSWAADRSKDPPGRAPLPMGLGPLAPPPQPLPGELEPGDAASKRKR
Voltage-dependent T-type calcium channel subunit alpha-1H (Homo sapiens), sequence (O95180 whole entry): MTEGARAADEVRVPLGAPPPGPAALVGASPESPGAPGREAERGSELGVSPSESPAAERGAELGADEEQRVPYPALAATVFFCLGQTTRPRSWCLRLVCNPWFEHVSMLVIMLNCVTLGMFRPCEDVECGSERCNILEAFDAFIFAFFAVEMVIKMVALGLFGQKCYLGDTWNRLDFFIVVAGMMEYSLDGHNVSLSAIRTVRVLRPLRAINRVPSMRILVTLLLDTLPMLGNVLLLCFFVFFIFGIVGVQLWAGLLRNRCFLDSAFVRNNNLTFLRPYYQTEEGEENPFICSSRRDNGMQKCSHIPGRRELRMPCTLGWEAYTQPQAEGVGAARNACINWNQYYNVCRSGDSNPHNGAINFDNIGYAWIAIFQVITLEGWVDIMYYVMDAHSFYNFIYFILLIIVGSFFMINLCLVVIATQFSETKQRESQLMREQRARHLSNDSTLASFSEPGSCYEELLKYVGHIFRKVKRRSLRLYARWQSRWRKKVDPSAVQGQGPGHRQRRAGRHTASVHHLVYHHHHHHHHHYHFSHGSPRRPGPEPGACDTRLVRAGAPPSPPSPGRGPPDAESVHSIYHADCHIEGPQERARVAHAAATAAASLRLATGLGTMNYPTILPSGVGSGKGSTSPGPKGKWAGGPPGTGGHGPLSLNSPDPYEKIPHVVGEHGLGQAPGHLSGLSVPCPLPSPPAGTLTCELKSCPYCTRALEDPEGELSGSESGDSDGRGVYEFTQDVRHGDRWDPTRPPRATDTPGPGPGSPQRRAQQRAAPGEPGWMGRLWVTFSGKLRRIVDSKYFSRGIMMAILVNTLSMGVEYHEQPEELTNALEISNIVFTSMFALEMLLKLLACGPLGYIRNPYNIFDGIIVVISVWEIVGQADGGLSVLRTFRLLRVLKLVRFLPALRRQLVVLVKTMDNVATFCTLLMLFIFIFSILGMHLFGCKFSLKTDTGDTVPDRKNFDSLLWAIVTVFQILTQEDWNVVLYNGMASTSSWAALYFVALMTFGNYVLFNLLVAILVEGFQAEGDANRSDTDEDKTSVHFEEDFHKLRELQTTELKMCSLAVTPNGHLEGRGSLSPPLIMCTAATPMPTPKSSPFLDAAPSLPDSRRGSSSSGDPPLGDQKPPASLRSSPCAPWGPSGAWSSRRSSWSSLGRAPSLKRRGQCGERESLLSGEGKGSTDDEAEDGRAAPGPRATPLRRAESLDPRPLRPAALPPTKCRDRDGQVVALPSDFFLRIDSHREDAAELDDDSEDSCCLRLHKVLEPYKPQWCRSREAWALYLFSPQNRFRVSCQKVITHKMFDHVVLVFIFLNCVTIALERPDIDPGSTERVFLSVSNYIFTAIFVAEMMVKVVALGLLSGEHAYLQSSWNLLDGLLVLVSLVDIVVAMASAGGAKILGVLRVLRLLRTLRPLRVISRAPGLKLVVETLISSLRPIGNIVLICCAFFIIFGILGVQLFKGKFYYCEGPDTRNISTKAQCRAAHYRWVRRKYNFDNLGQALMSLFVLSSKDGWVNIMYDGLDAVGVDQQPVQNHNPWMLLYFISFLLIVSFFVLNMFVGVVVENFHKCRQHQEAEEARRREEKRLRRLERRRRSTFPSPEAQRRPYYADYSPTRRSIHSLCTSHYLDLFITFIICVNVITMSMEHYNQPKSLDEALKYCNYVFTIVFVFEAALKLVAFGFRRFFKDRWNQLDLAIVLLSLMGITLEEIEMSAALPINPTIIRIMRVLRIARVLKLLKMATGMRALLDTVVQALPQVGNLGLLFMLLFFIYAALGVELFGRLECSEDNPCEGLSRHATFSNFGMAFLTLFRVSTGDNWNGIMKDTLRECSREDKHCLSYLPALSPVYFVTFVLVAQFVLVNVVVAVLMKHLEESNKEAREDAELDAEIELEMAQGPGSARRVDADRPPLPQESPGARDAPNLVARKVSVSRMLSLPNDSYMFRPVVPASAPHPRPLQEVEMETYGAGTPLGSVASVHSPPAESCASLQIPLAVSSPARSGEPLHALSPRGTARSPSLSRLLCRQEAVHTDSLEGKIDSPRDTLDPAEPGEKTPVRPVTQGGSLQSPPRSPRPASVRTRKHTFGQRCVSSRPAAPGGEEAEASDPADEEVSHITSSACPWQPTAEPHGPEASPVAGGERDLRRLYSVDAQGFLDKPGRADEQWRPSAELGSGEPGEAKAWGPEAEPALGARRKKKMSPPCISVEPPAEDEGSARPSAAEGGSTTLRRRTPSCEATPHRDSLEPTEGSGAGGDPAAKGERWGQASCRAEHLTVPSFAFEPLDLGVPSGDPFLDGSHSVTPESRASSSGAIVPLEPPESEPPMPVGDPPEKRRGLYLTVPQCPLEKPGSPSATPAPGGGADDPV

inhibition [1] | inhibition [2] | V1/2 [3] [mV] | V1/2 [4] [mV] | TIME [6] [h] | IC50 [7] [µM] | inhibition [8] | Activity [9] | inhibition [10] | inhibition [11] | Activity [12] | Structure (SMILES) | inhibition (ND7/23 [5]) | inhibition (HEK293) | inhibition (ND7/23 [13])
Active | Active | -58.5 | -70.2 | 0.000267 | 18.9 | Active | 6 | Active | Active | 5.3 | CC1CC(=O)C=C(NC(=O)c2cc(C(F)(F)F)cc(C(F)(F)F)c2)C1 (stereo not given) | Active | Active | 
 |  |  |  |  |  |  |  |  |  |  | CC1CC(=O)C=C(NC(=O)c2ccccc2C(F)(F)F)C1 (stereo not given) |  |  | Active
 |  |  |  |  |  |  |  |  |  |  | CC1CC(=O)C=C(NC(=O)c2cccc(C(F)(F)F)c2)C1 (stereo not given) |  |  | Active
